Data from US20020160968A1, “Inhibitors of cellular niacinamide mononucleotide formation and their use in cancer therapy” (Klinge Pharma GmbH, priority 1999, published 2002).

Biological target: T1, niacinamide phosphoribosyltransferase (NAPRT, EC 2.4.2.12) (Homo sapiens, UniProt P43490)
T1 construct: protamine-treated cytoplasmic fraction of K-562 cells as the enzyme source; endogenous in cells; host or cells: K-562 (ATCC CCL 243), freeze-thaw lysate, 23,000 x g supernatant treated with protamine sulfate
T1 sequence (P43490 whole entry): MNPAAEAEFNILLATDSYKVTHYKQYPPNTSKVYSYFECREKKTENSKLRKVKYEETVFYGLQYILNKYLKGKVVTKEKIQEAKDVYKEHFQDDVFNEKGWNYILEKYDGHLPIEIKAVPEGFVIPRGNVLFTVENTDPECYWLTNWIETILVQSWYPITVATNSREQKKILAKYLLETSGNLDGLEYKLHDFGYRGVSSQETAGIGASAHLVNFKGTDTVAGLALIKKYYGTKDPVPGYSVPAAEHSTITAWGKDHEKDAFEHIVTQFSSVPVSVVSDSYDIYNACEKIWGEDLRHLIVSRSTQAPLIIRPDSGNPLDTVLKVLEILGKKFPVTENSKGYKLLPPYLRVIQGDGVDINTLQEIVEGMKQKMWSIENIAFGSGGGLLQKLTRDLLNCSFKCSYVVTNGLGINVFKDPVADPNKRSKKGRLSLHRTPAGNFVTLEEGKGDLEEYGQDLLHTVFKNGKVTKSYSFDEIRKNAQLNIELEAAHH
Test: Niacinamide phosphoribosyltransferase (NAPRT) assay, protamine-treated cytoplasmic fraction of K-562 cells
Type: biochemical
Details: for NAM: niacinamide mononucleotide formed, controls 79.1 and 71.8; for NA: niacinamide remaining, controls 389.7 and 397.0; for NAM [%] / NA [%]: portion of total radioactivity
Experimental: The effect of the compounds on the enzyme niacinamide phosphoribosyltransferase (NAPRT, EC 2.4.2.12) was investigated using for example protamine-treated cytoplasmic fraction of K-562 cells as the enzyme source according to the NAPRT assay described in the experimental part below. The investigated compounds were used in concentrations of 10 μM, except for K22387 and K22133 where the concentration was 1 μM.
The assay is based on the amount of radioactive incorporation from ^14C-labelled niacinamide into niacinamide mononucleotide (NAM). NAM is subsequently separated from niacinamide (NA) by thin-layer chromatography and its quantity is determined by autoradiography.
Niacinamide Phosphoribosyltransferase (NAPRT) Assay
The human cell line K-562 (chronic myelogenous leukaemia) is obtained from the American Type Culture Collection (ATCC CCL 243), Rockville, Md., USA. The K-562 cells are cultured in RPMI (Sigma, Deisenhofen, Germany, Product No.: R6504) containing 10% foetal calf serum (PAN Systems GmbH, Aidenbach, Germany), 2.2 g/l NaHCO3 (Merck, Darmstadt, Germany), 50,000 IU/l penicillin and 50 mg/l streptomycin (Sigma).
The K-562 cells are grown in RPMI supplemented with 10% FCS at 37° C. and 100% humidity in a 5% CO2 atmosphere up to a density of 2×10^6 cells per ml. Under these conditions, the cells grow logarithmically with a generation time of 24 hours. The cells are harvested by aspiration and centrifugation (250×g, 10 min, RT). Thereafter, the cells are washed at least 3 times by repeated centrifugation (250×g, 10 min, RT) and resuspension in CMF-PBS. After counting the cell suspension in a haematocytometer, the cells are spun into a tight pellet (390×g, […], RT) and the supernatant is carefully drawn off with a Pasteur pipette. The cells are then vortexed into suspension in sufficient lysis buffer to give a final concentration of 3×10^7 cells per ml. The suspension is frozen at −80° C. for at least one day and thawed slowly at room temperature to break up the cells. The breakage is usually greater than 95%, as determined by trypan blue exclusion. Following centrifugation at 23,000×g for 90 min at 0° C., the clarified supernatant is recovered on ice and 70 μl of 1% protamine sulfate is added per ml of supernatant. After 15 min on ice, the cloudy suspension is centrifuged a further 30 min at 23,000×g and 0° C. The final supernatant is stored in small aliquots at […] This supernatant contains about 950 to 1440 μg protein per ml. 120 to 140 μg protein per sample is used in the NAPRT assay (total assay volume: 0.5 ml).
The niacinamide phosphoribosyltransferase activity is determined in a reaction solution of 0.5 ml consisting of 5 mM MgCl2, 2 mM ATP, 0.5 mM PRPP, and [^14C]niacinamide (10^−5 M to 10^−7 M) in 50 mM Tris buffer pH 8.8 (final concentrations in the assay). The reaction is started by adding 100 to 120 μl cell extract. After incubation for 1 hour at 37° C., the enzyme reaction is stopped by adding cold niacinamide (50 μl of a 100 mM niacinamide solution per 0.5 ml reaction mixture) and by heating on a heating block (2 min, 105° C.). The precipitate is removed by centrifugation (2,500×g, 10 min, 4° C.) and the supernatant is collected into a […] polypropylene vial with screw cap and stored at −20° C. until further analysis. A 10 μl aliquot is taken from the supernatant to determine the total amount of radioactivity.
The ^14C-labelled components of the reaction mixture are separated and identified using thin-layer chromatography (TLC). 5 to 7.5 μl of each sample is transferred to a cellulose TLC foil using an automated sample applicator. The cellulose foil is developed using 1 M NH4 acetate:ethanol (3:7) as solvent. The chromatogram is run with added non-radioactive standards of NAD, NADP, NAM and niacinamide, and the spots were identified by UV absorption (RF values see Table 7). For autoradiography, the chromatogram is exposed to an imaging plate BAS-IIIs in a hypercassette for at least two days. […]

[1] = compound 10 μM, controls 16.88 and 15.32
[2] = compound 10 μM, controls 83.12 and 84.68

| Structure (SMILES) | NAM (compound 10 μM) [pmol/h] | NA (compound 10 μM) [pmol/h] | NAM [%] [1] [%] | NA [%] [2] [%] | NAM (compound 1 μM) [pmol/h] | NA (compound 1 μM) [pmol/h] | NA [%] (compound 1 μM) | NAM [%] (compound 1 μM) |
| --- | --- | --- | --- | --- | --- | --- | --- | --- |
| Cn1c(CCNC(=O)/C=C/c2cccnc2)ccc1CN1CCN(C(c2ccccc2)c2ccccc2)CC1 [Compound K22350, N-{2-[5-(4-benzhydryl-piperazine-1-yl-methyl)-1-methyl-1H-pyrrole-2-yl]-ethyl}-3-pyridine-3-yl-acrylamide] | 0.0 | 468.8 | 0.00 | 100.00 | – | – | – | – |
| O=C(NCCCCC1CCN(S(=O)(=O)c2ccc3ccccc3c2)CC1)Nc1cccnc1 [Compound K22365, 1-{4-[1-(naphthalene-2-sulfonyl)-piperidine-4-yl)-butyl}-3-pyridine-3-yl-urea] | 0.0 | 468.8 | 0.00 | 100.00 | – | – | – | – |
| O=C(NCCCCC1CCN(C(=O)N2c3ccccc3CCc3ccccc32)CC1)Nc1cccnc1 [Compound K22387, 1-{4-[1-(1,11-dihydro-dibenzene[b,f]azepine-5-carbonyl)-piperidine-4-yl]-butyl}-3-pyridine-3-yl-urea] | – | – | – | – | 0.0 | 468.8 | 100.00 | 0.00 |
| NC(Cc1ccc(O)c(N=Nc2ccccc2C(=O)N2CCC(CCCCNC(=O)/C=C/c3cccnc3)CC2)c1)C(=O)O (stereo not shown) [Compound K22408, 2-amino-3-[4-hydroxy-3-(2-{4-[4-(3-pyridine-3-yl-acryloyl-amino)-butyl]-piperidine-1-carbonyl}-phenylazo)-phenyl]-propanoic acid trihydrate] | 0.0 | 468.8 | 0.00 | 100.00 | – | – | – | – |
